{
  "source": "patent US8945597B2",
  "about": "“Botanical insecticides” (priority 2012, dated 2015)",
  "data": [
    {"system": "Aphid nymphs (Aphis medicagini)", "assay": "Insecticidal efficacy test against aphid nymphs (leaf disc dip)", "format": "in vivo", "conditions": "concentration 20 mg/L; leaf disc dipped 5 seconds; mortality after 24 hours", "description": "Insecticidal Efficacy Test Against Aphid Nymphs (Aphis medicagini)\nTake the first preferred embodiment, diluted in water in two different concentrations, A with 1% weight content of active ingredients, B with 0.1% active ingredients. Vicia leaf cut into round disc in 2 cm diameter, back up placed on a small cotton ball, and then mounted in a Petri dish, 5 ml water is added. Mature aphids are transferred onto the leaf disc to hatch aphid nymphs. Mature aphids are removed after 24 hours and 20-30 aphid nymphs are left on the leave disc and continue to culture for one day. The leave disc with aphid nymphs is merged into solution A and B for 5 seconds, excessive fluid on the leaf surface is absorbed by paper tower. Leaf disc is then mounted back to the cotton ball for another 24 hours observation. Use Nitenpyram 20 mg/L for comparison and water as control.", "units": {"MOTALITY %": "%"}, "values": [
      {"compound": "CCN(Cc1ccc(Cl)nc1)/C(=C/[N+](=O)[O-])NC", "note": "[Nitenpyram]", "MOTALITY %": 100}
    ]},
    {"system": "planthopper nymphs (nilaparvata legen)", "assay": "Insecticidal efficacy test against planthopper nymphs (POTTER sprayer)", "format": "in vivo", "conditions": "concentration 20 mg/L; sprayed; mid 3rd instar nymphs; mortality after 72 hours", "description": "Insecticidal efficacy test against planthopper nymphs (nilaparvata legen). Some rice seedling leaves are mounted with white quartz sand in a Petri dish with 5 cm diameter containing 5 ml water. Planthoppers nymphs of mid 3rd instar were anesthetized by CO2. 20-30 anesthetized nymphs are transferred to each Petri dish and placed under the POTTER sprayer. Same amount of testing chemical is sprayed into each Petri dish and covered with transparent plastic cup. Use nitenpyram 20 mg/L for comparison and water as control.", "units": {"MOTALITY %": "%"}, "values": [
      {"compound": "CCN(Cc1ccc(Cl)nc1)/C(=C/[N+](=O)[O-])NC", "note": "[Nitenpyram]", "MOTALITY %": 100}
    ]},
    {"system": "pest insects", "assay": "Insecticidal properties of terpenes/terpenoids (test not described)", "conditions": "tested and proved; test details not given", "values": [
      {"compound": "C=CCS[S@@+]([O-])CC=C", "note": "(stereo in doubt) [allicin]", "insecticidal properties": "significant insecticidal properties"},
      {"compound": "CC12CCC(CC1)C(C)(C)O2", "note": "[1,8-cineole]", "insecticidal properties": "significant insecticidal properties"},
      {"compound": "CC(C)[C@@H]1CC[C@@H](C)C[C@H]1O", "note": "[3-p-menthanol]", "insecticidal properties": "significant insecticidal properties"},
      {"compound": "C[C@@H]1CC[C@H]2C(C)(C)C3C[C@@]12CC[C@@]3(C)O", "note": "[Embodiment 8-epicedrol, 8-epicedrol]", "insecticidal properties": "significant insecticidal properties"},
      {"compound": "Cc1ccc(C(C)C)cc1", "note": "[p-cymene]", "insecticidal properties": "significant insecticidal properties"},
      {"compound": "C=C1CC/C=C(\\C)CC[C@@H]2[C@@H]1CC2(C)C", "note": "[β-caryophyllene]", "insecticidal properties": "significant insecticidal properties"},
      {"compound": "ocimene", "insecticidal properties": "significant insecticidal properties"},
      {"compound": "pinene", "insecticidal properties": "significant insecticidal properties"}
    ]}
  ]
}
